Experimental data from patent US9884043B2, “RORgammaT inhibitors” (Merck Sharp & Dohme Corp., priority 2011, dated 2018).

Target: T1, HIS-tagged RORγ-LBD (Homo sapiens, UniProt P51449)
T1 construct: HIS-tagged RORγ-LBD was recombinantly expressed in SF9 cells using a baculovirus expression system; made in house; host or cells: SF9 cells, baculovirus; crude lysate used
T1 sequence (P51449 269-508 limits assumed): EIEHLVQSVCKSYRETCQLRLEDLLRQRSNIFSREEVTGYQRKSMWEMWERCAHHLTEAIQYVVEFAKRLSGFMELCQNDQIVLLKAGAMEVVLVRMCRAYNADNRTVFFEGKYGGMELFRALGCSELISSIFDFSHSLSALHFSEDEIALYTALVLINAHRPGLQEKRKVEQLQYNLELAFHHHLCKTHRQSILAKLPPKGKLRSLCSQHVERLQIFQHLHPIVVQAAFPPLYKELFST
Assay: TR-FRET assay (Protocol B), RORγ-LBD lysate / biotinylated SRC1-2 LXXLL peptide
Assay type: biochemical
Settings: unpurified RORγ-LBD lysate ~10 nM, SRC1-2 peptide 450 nM
From the text: Activation of RORgammaT activity can be measured using e.g. biochemical TR-FRET assay. In such an assay, interaction of cofactor-derived peptides with human RORgammaT-Ligand Binding Domain (LBD) can be measured.
To identify novel antagonists of RORgammaT, an assay was developed which employs the interaction of RORgammaT with its co-activator peptide SRC1_2. […] The assay was run following three slightly different protocols, i.e. Protocol A, Protocol B, and Protocol C, which are described below.
TR-Fret Assay (Protocol B)
HIS-tagged RORγ-LBD was recombinantly expressed in SF9 cells using a baculovirus expression system. The protein was not purified. Cells were lysed and the lysate was used as a source for RORγ-LBD for the assay. A 1:80 dilution of RORγ-LBD lysate in assay buffer (25 mM HEPES pH 7.0, 100 mM NaCl, 0.01% Tween, 0.1% BSA) was prepared and 5 μL was added to each well (RORγ-LBD final concentration ˜10 nM). Control wells received lysate from SF9 cells not expressing RORγ-LBD.
Compounds to be tested were diluted to 100× final test concentration in DMSO and further diluted to 4× final test concentration using assay buffer to provide the test compound mixture. An aliquot (5 μL) of the test compound mixture was added to each well.

In the case of `COc1cccc(F)c1C(=O)n1nc(-c2ccc(C(=O)O)cc2F)c2c(F)cccc21` [Example 24AA, 3-fluoro-4-(4-fluoro-1-(2-fluoro-6-methoxybenzoyl)-1H-indazol-3-yl)benzoic acid], the IC50 is reported as < 50 nM.
With `COc1cccc(F)c1C(=O)n1nc(-c2ccc(C(=O)O)cc2)c2c(F)cccc21` [Example 24AB, 4-(4-fluoro-1-(2-fluoro-6-methoxybenzoyl)-1H-indazol-3-yl)benzoic acid] the IC50 was < 50 nM.
Molecule `O=C(O)c1cccc(-c2nn(C(=O)c3c(Cl)cccc3C(F)(F)F)c3cccnc23)c1` [Example 24AC, 3-(1-(2-chloro-6-(trifluoromethyl)-benzoyl)-1H-pyrazolo[4,3-b]pyridin-3-yl) benzoic acid] has an IC50 of 500 to 10000 nM.
Work on `O=C(O)Cc1ccc(-c2nn(C(=O)c3c(Cl)cccc3C(F)(F)F)c3cccnc23)cc1` [Example 24AD, 2-(4-(1-(2-chloro-6-(trifluoromethyl)-benzoyl)-1H-pyrazolo[4,3-b]pyridin-3-yl)phenyl)acetic acid] yielded an IC50 of 500 to 10000 nM.
With `O=C(c1c(Cl)cccc1C(F)(F)F)n1nc(-c2ccc(C(O)(C(F)(F)F)C(F)(F)F)cc2)c2ncccc21` [Example 24AE, (2-chloro-6-(trifluoromethyl)-phenyl)(3-(4-(1,1,1,3,3,3-hexafluoro-2-hydroxypropan-2-yl)phenyl)-1H-pyrazolo[4,3-b]pyridin-1-yl)methanone] the IC50 was 500 to 10000 nM.
For `Cc1cc(C(=O)O)ccc1-c1nn(C(=O)c2c(Cl)cccc2C(F)(F)F)c2cccnc12` [Example 24AF, 4-(1-(2-chloro-6-(trifluoromethyl)-benzoyl)-1H-pyrazolo[4,3-b]pyridin-3-yl)-3-methylbenzoic acid], the IC50 was < 50 nM.
With `O=C(O)c1ccc(-c2nn(C(=O)c3c(Cl)cccc3C(F)(F)F)c3cccnc23)c(Cl)c1` [Example 24AG, 3-chloro-4-(1-(2-chloro-6-(trifluoromethyl)-benzoyl)-1H-pyrazolo[4,3-b]pyridin-3-yl)benzoic acid] the IC50 was < 50 nM.
In the case of `O=C(O)c1ccc(-c2nn(C(=O)c3c(Cl)cccc3C(F)(F)F)c3cccnc23)cc1F` [Example 24AH, 4-(1-(2-chloro-6-(trifluoromethyl)-benzoyl)-1H-pyrazolo[4,3-b]pyridin-3-yl)-2-fluorobenzoic acid], the IC50 is reported as < 50 nM.
`COc1cc(-c2nn(C(=O)c3c(Cl)cccc3C(F)(F)F)c3cccnc23)ccc1C(=O)O` [Example 24AI, 4-(1-(2-chloro-6-(trifluoromethyl)-benzoyl)-1H-pyrazolo[4,3-b]pyridin-3-yl)-2-methoxybenzoic acid] gave an IC50 of 50 to 500 nM.
`O=C(O)c1cc(F)c(-c2nn(C(=O)c3c(Cl)cccc3C(F)(F)F)c3cccnc23)cc1Cl` [Example 24AJ, 2-chloro-4-(1-(2-chloro-6-(trifluoromethyl)-benzoyl)-1H-pyrazolo[4,3-b]pyridin-3-yl)-5-fluorobenzoic acid] was tested, and the IC50 was 50 to 500 nM.
In the case of `O=C(O)c1cc(F)c(-c2nn(C(=O)c3c(Cl)cccc3C(F)(F)F)c3cccnc23)cc1F` [Example 24AK, 4-(1-(2-chloro-6-(trifluoromethyl)-benzoyl)-1H-pyrazolo[4,3-b]pyridin-3-yl)-2,5-difluorobenzoic acid], the IC50 is reported as < 50 nM.
In the case of `COc1cccc(F)c1C(=O)n1nc(-c2ccc(C(=O)O)cc2)c2ncccc21` [Example 24AM, 4-(1-(2-fluoro-6-methoxybenzoyl)-1H-pyrazolo[4,3-b]pyridin-3-yl)benzoic acid], the IC50 is reported as < 50 nM.
With `COc1cccc(F)c1C(=O)n1nc(-c2ccc(C(=O)O)cc2F)c2ncccc21` [Example 24AN, 3-fluoro-4-(1-(2-fluoro-6-methoxybenzoyl)-1H-pyrazolo[4,3-b]pyridin-3-yl)benzoic acid] the IC50 was < 50 nM.
For `O=C(O)c1ccc(-c2nn(C(=O)c3c(Cl)cccc3C(F)(F)F)c3cccc(C(F)(F)F)c23)cc1` [Example 24AO, 4-(1-(2-chloro-6-(trifluoromethyl)-benzoyl)-4-(trifluoromethyl)-1H-indazol-3-yl)benzoic acid], the IC50 was < 50 nM.
`CC(C)c1cc(-c2nn(C(=O)c3c(Cl)cccc3C(F)(F)F)c3ccccc23)ccc1C(=O)O` [Example 24AP, 4-(1-(2-chloro-6-(trifluoromethyl)-benzoyl)-1H-indazol-3-yl)-2-isopropylbenzoic acid] showed an IC50 of 500 to 10000 nM.
With `O=C(O)c1ccc(-c2nn(C(=O)c3c(Cl)cccc3C(F)(F)F)c3ccccc23)cc1F` [Example 24AQ, sodium 4-(1-(2-chloro-6-(trifluoromethyl)-benzoyl)-1H-indazol-3-yl)-2-fluoro benzoate] the IC50 was < 50 nM.
In the case of `O=C(O)c1ccc(-c2nn(C(=O)c3c(Cl)cccc3C(F)(F)F)c3ccccc23)c(F)c1` [Example 24AR, sodium 4-(1-(2-chloro-6-(trifluoromethyl)-benzoyl)-1H-indazol-3-yl)-3-fluoro benzoate], the IC50 is reported as < 50 nM.
`COc1cccc(F)c1C(=O)n1nc(-c2ccc(C(=O)O)cc2F)c2ccccc21` [Example 24AT, 3-fluoro-4-(1-(2-fluoro-6-methoxybenzoyl)-1H-indazol-3-yl)benzoic acid] was tested, and the IC50 was < 50 nM.
With `O=C(O)c1ccc(-c2nn(C(=O)c3c(Cl)cccc3C(F)(F)F)c3cc(Br)cc(F)c23)cc1` [Example 24AX, 4-(6-bromo-1-(2-chloro-6-(trifluoromethyl)-benzoyl)-4-fluoro-1H-indazol-3-yl) benzoic acid] the IC50 was < 50 nM.
`COc1cc(F)c2c(-c3ccc(C(=O)O)cc3)nn(C(=O)c3c(Cl)cccc3C(F)(F)F)c2c1` [Example 24AZ, 4-(1-(2-chloro-6-(trifluoromethyl)-benzoyl)-4-fluoro-6-methoxy-1H-indazol-3-yl) benzoic acid] was tested, and the IC50 was 50 to 500 nM.
For `O=C(O)c1ccc(-c2nn(C(=O)c3c(Cl)cccc3C(F)(F)F)c3cc(O)ccc23)cc1` [Example 24BA, 4-(1-(2-chloro-6-(trifluoromethyl)-benzoyl)-6-hydroxy-1H-indazol-3-yl)benzoic acid], the IC50 was < 50 nM.
`O=C(O)c1ccc(-c2nn(C(=O)c3c(Cl)cccc3C(F)(F)F)c3cc(O)ccc23)c(F)c1` [Example 24BB, 4-(1-(2-chloro-6-(trifluoromethyl)-benzoyl)-6-hydroxy-1H-indazol-3-yl)-3-fluorobenzoic acid] was tested, and the IC50 was < 50 nM.
`O=C(O)c1ccc(-c2nn(C(=O)c3c(Cl)cccc3C(F)(F)F)c3cc(O)cc(F)c23)cc1` [Example 24BC, 4-(1-(2-chloro-6-(trifluoromethyl)-benzoyl)-4-fluoro-6-hydroxy-1H-indazol-3-yl)benzoic acid] gave an IC50 of 500 to 10000 nM.
With `O=C(O)c1ccc(-c2nn(C(=O)c3c(Cl)cccc3C(F)(F)F)c3cc(O)cc(F)c23)c(F)c1` [Example 24BD, 4-(1-(2-chloro-6-(trifluoromethyl)-benzoyl)-4-fluoro-6-hydroxy-1H-indazol-3-yl)-3-fluorobenzoic acid] the IC50 was 500 to 10000 nM.
In the case of `O=C(O)c1ccc(-c2nn(C(=O)c3c(Cl)cccc3C(F)(F)F)c3cc(CO)ccc23)cc1` [Example 24BE, 4-(1-(2-chloro-6-(trifluoromethyl)-benzoyl)-6-(hydroxymethyl)-1H-indazol-3-yl)benzoic acid], the IC50 is reported as < 50 nM.
In the case of `O=C(O)c1ccc(-c2nn(C(=O)c3c(Cl)cccc3C(F)(F)F)c3cc(CO)ccc23)c(F)c1` [Example 24BF, 4-(1-(2-chloro-6-(trifluoromethyl)-benzoyl)-6-(hydroxymethyl)-1H-indazol-3-yl)-3-fluorobenzoic acid], the IC50 is reported as < 50 nM.
With `O=C(O)c1ccc(-c2nn(C(=O)c3c(Cl)cccc3C(F)(F)F)c3cccnc23)c(F)c1` [Example 24C, sodium 4-(1-(2-chloro-6-(trifluoromethyl)benzoyl)-1H-pyrazolo[4,3-b]pyridin-3-yl)-3-fluorobenzoate] the IC50 was < 50 nM.
For `O=C(c1c(Cl)cccc1C(F)(F)F)n1nc(-c2ccc(C(O)(C(F)(F)F)C(F)(F)F)cc2)c2c(F)cccc21` [Example 24D, (2-chloro-6-(tri-fluoromethyl)-phenyl)(4-fluoro-3-(4-(1,1,1,3,3,3-hexafluoro-2-hydroxypropan-2-yl)phenyl)-1H-indazol-1-yl)methanone], the IC50 was 500 to 10000 nM.
Work on `O=C(O)c1cccc(-c2nn(C(=O)c3c(Cl)cccc3C(F)(F)F)c3cccc(F)c23)c1` [Example 24E, 3-(1-(2-chloro-6-(trifluoromethyl)-benzoyl)-4-fluoro-1H-indazol-3-yl)benzoic acid] yielded an IC50 of 500 to 10000 nM.
`O=C(O)Cc1cccc(-c2nn(C(=O)c3c(Cl)cccc3C(F)(F)F)c3cccc(F)c23)c1` [Example 24F, 2-(3-(1-(2-chloro-6-(trifluoromethyl)-benzoyl)-4-fluoro-1H-indazol-3-yl)phenyl)acetic acid] was tested, and the IC50 was 500 to 10000 nM.
`O=C(O)Cc1ccc(-c2nn(C(=O)c3c(Cl)cccc3C(F)(F)F)c3cccc(F)c23)cc1` [Example 24G, 2-(4-(1-(2-chloro-6-(trifluoromethyl)-benzoyl)-4-fluoro-1H-indazol-3-yl)phenyl)acetic acid] gave an IC50 of 500 to 10000 nM.
With `NC(=O)c1ccc(-c2nn(C(=O)c3c(Cl)cccc3C(F)(F)F)c3cccc(F)c23)cc1` [Example 24J, 4-(1-(2-chloro-6-(trifluoromethyl)-benzoyl)-4-fluoro-1H-indazol-3-yl)benzamide] the IC50 was 50 to 500 nM.
